Results on one compound are retold here after patent US20100312139A1, “Method for Identifying Mammals at Risk for Elevated intracranial Pressure” (BOARD OF REGENTS OF THE UNIVERSITY OF TEXAS SYSTEM, priority 2009, published 2010).

Structures are written as SMILES.

This experiment deals with TBI-associated cerebral edema, controlled cortical impact model. The experiment can be described thus: Cerebral edema as percentage brain water content (wet-dry method) after controlled cortical impact brain injury. The class given is in vivo. The following applies: rat, 400 mg/kg administered 30 minutes after cortical impact injury, measured 24 hr after injury, versus control animals. How it is done: A number of studies have reported that blood-brain barrier compromise and cerebral edema are key contributors to the elevation of ICP. Penicillamine is a copper scavenger that is FDA approved for the treatment of Wilson's disease. Therefore penicillamine was used in this study to determine if sequestration of copper would restore TBI-associated BBB permeability and cerebral edema. […] BBB permeability was assessed by measuring the extravasation of Evans Blue dye as described in Zhao, et al., 2007 (Zhao, J., Moore, A. N., Redell, J. B. and Dash, P. K. 2007. Enhancing expression of Nrf2-driven genes protects the blood brain barrier after brain injury. J. Neurosci. 27, 10240-10248).
Cerebral edema was assessed by determining the percentage brain water content using the wet-dry method as described previously (McIntosh, T. K., Soares, H., Thomas, M. and Cloherty, K. 1990. Development of regional cerebral oedema after lateral fluid-percussion brain injury in the rat. Acta Neurochir. Suppl (Wien.) 51, 263-264; Shohami, E., Novikov, M. and Mechoulam, R. 1993. A nonpsychotropic cannabinoid, HU-211, has cerebroprotective effects after closed head injury in the rat. J. Neurotrauma 10, 109-119). BBB permeability and cerebral edema were measured 24 hr after injury, in independent sets of animals.

For `CC(C)(S)[C@@H](N)C(=O)O` [penicillamine, Penicillamine], the “effect on cerebral edema (percentage brain water content)” value is reported as “did not have any effect”.
